Where a name gives a salt, the structure may show the parent alone.
Assays:
[1] = tested on: collagen production induced by TGF-β (NHDF cells); test: Inhibitory effect on collagen production induced by TGF-β, [3H] proline uptake (NHDF cells); format: cell-based, human; details: TGF-β1 3 ng/ml; for inhibition at 1 µM / inhibition at 3 µM / inhibition at 10 µM: Homo sapiens, NHDF
Method: As an index of collagen production, the uptake of [^3H] proline was measured.
Using a 96-well microplate, normal human skin derived fibroblast (NHDF, 10^4/well) or human embryonic lung fibroblast (TIG-3, 10^4/well) were cultured in a 10% fetal calf serum (FCS)-containing Dulbecco's modified Eagle medium (DMEM) for one day. After removing the culture supernatant, the cells were washed once with a 0.1% bovine serum albumin (BSA)-containing DMEM medium and then cultured in the 0.1% bovine serum albumin (BSA)-containing DMEM medium for one day. After adding each of the test compounds in each concentration (1, 3, 10 μM), the cells were cultured and, after adding TGF-β1 (3 ng/ml) and [^3H] proline (18.5 kBq/well), the cells were further cultured for additional one day.
After removing the culture supernatant, the cells were washed twice with a phosphate buffer solution (PBS) and dissolved with 0.3M NaOH and 1% sodium dodecylsulfate (SDS), and then each protein fraction was precipitated with trichloroacetic acid (TCA) After the precipitate was filtered through a glass filter (GF/B) and washed, the quantity of [^3H] proline on the glass filter was measured by a liquid scintillation counter. The number of cells was measured by a cell growth measuring kit (XTT, Roche) and the uptake of [^3H] proline was corrected by the number of cells. Inhibitory ratio was calculated as compared with the case where a difference between the uptake of [^3H] proline with or without TGF-β1.

[2] = Measurement of concentration of compound in rat plasma; format: in vivo; details: oral 10 mg/kg; for concentration at 0.25 h: after 0.25 hours; for concentration at 1 h: after 1 hour; for concentration at 4 h: after 4 hours
Method: Each of the test compounds was dissolved or suspended in methyl cellulose and the resulting solution or suspension was orally administered to rats at a dosage of 10 mg/kg and blood was collected after 0.25 hours, 1 hour and 4 hours. The concentration in plasma in each of the compounds was measured by HPLC.

| Compound | inhibition at 1 µM ([1]; 1 μM) [%] | inhibition at 3 µM ([1]; 3 μM) [%] | other results |
| --- | --- | --- | --- |
| COc1cc2c(cc1OC)C(C)N(C(=O)/C=C/c1c(-c3ccccc3)n(C)c3ncccc13)CC2 (centres unmarked) [Example 3, 6,7-dimethoxy-1-methyl-2-[(2E)-3-(1-methyl-2-phenyl-1H-pyrrolo[2,3-b]pyridin-3-yl)prop-2-enoyl]-1,2,3,4-tetrahydroisoquinoline hydrochloride] | 65 | 105 | inhibition at 10 µM [1]: 143%; concentration at 0.25 h [2]: 120 to 660 ng/mL; concentration at 1 h [2]: 370 to 640 ng/mL; concentration at 4 h [2]: 260 to 310 ng/mL |
| CO[C@H]1Cc2ccccc2[C@H]1NC(=O)/C=C/c1c(-c2ccccc2)n(C)c2ncccc12 [Example 4, (2E)-N-[(1R,2S)-2-methoxy-2,3-dihydro-1H-inden-1-yl]-3-(1-methyl-2-phenyl-1H-pyrrolo[2,3-b]pyridin-3-yl)acrylamide hydrochloride] | 41 | 70 | inhibition at 10 µM [1]: 138%; concentration at 0.25 h [2]: 390 to 500 ng/mL; concentration at 1 h [2]: 490 to 590 ng/mL; concentration at 4 h [2]: 180 to 290 ng/mL |
| Cc1ccc2c(c1)c(C(=O)N1CCN(c3cnc(C(=O)NCCc4scnc4C)cn3)CC1)c(-c1ccccc1)n2C [Example 5, 5-{4-[(1,5-dimethyl-2-phenyl-1H-indol-3-yl)carbonyl]piperazin-1-yl}-N-[2-(4-methyl-1,3-thiazol-5-yl)ethyl]pyrazine-2-carboxamide trihydrochloride] | 40 | 43 | inhibition at 10 µM [1]: 88%; concentration at 0.25 h [2]: 1400 to 2300 ng/mL; concentration at 1 h [2]: 520 to 720 ng/mL; concentration at 4 h [2]: 87 to 160 ng/mL |
| Cc1ccc2c(c1)c(C(=O)N1CCN(c3ccc(-c4nnn(C)n4)cn3)CC1)c(-c1ccccc1)n2C [Example 26, 1,5-dimethyl-2-phenyl-3-[{4-[5-(2-methyl-2H-tetrazol-5-yl)pyridin-2-yl]piperazin-1-yl}carbonyl]-1H-indole] | – | – | concentration at 0.25 h [2]: 230 to 800 ng/mL; concentration at 1 h [2]: 130 to 300 ng/mL; concentration at 4 h [2]: 0 to 92 ng/mL |
| Cn1c(-c2ccccc2)c(/C=C/C(=O)N2CCc3ccccc3C2)c2cccnc21 [Example 104, 2-[(2E)-3-(1-methyl-2-phenyl-1H-pyrrolo[2,3-b]pyridin-3-yl)prop-2-enoyl]-1,2,3,4-tetrahydroisoquinoline hydrochloride] | – | – | concentration at 0.25 h [2]: 14 to 19 ng/mL; concentration at 1 h [2]: 44 to 71 ng/mL; concentration at 4 h [2]: 25 to 32 ng/mL |
| COC(=O)CC1c2cc(OC)c(OC)cc2CCN1C(=O)/C=C/c1c(-c2ccccc2)n(C)c2ncccc12 (centres unmarked) [Example 133, Methyl {6,7-dimethoxy-2-[(2E)-3-(1-methyl-2-phenyl-1H-pyrrolo[2,3-b]pyridin-3-yl)prop-2-enoyl]-1,2,3,4-tetrahydroisoquinolin-1-yl}acetate hydrochloride] | 57 | 104 | – |
| COc1cc2c(cc1OC)C(CC(=O)O)N(C(=O)/C=C/c1c(-c3ccccc3)n(C)c3ncccc13)CC2.Cl (centres unmarked) [Example 134, {6,7-dimethoxy-2-[(2E)-3-(1-methyl-2-phenyl-1H-pyrrolo[2,3-b]pyridin-3-yl)prop-2-enoyl]-1,2,3,4-tetrahydroisoquinolin-1-yl}acetic acid hydrochloride] | – | – | Inhibitory effect on collagen production induced by TGF-β (% inhibition) ([1]; 1 μM): 90%; Inhibitory effect on collagen production induced by TGF-β (% inhibition) ([1]; 3 μM): 111% |
| COc1cc2c(cc1OC)CN(C(=O)/C=C/c1c(-c3ccncc3)n(C)c3ncccc13)CC2 [Example 135, 2-{(2E)-3-[1-methyl-2-(4-pyridyl)-1H-pyrrolo[2,3-b]pyridin-3-yl]prop-2-enoyl}-6,7-dimethoxy-1,2,3,4-tetrahydroisoquinoline dihydrochloride] | 78 | 110 | – |
| COc1cc2c(cc1OC)CN(C(=O)/C=C/c1c(-c3ccccc3)n(C)c3cccnc13)CC2 [Example 136, 2-[(2E)-3-(1-methyl-2-phenyl-1H-pyrrolo[3,2-b]pyridin-3-yl)prop-2-enoyl]-6,7-dimethoxy-1,2,3,4-tetrahydroisoquinoline hydrochloride] | 66 | 111 | – |
| Cn1c(-c2ccccc2)c(/C=C/C(=O)N(CCc2cccs2)CC(=O)O)c2cccnc21 [Example 137, N-[(2E)-3-(1-methyl-2-phenyl-1H-pyrrolo[2,3-b]pyridin-3-yl)prop-2-enoyl]-N-[2-(2-thienyl)ethyl]aminoacetic acid] | 38 | 72 | – |
| COc1cc2c(cc1OC)CN(C(=O)/C=C/c1c(-c3ccccc3)[nH]c3ncccc13)CC2 [Example 138, 6,7-dimethoxy-2-[(2E)-3-(2-phenyl-1H-pyrrolo[2,3-b]pyridin-3-yl)prop-2-enoyl]-1,2,3,4-tetrahydroisoquinoline dihydrochloride] | 65 | 53 | – |
| COCn1c(-c2ccccc2)c(/C=C/C(=O)N2CCc3cc(OC)c(OC)cc3C2)c2cccnc21 [Example 139, 2-[(2E)-3-(1-methoxymethyl-2-phenyl-1H-pyrrolo[2,3-b]pyridin-3-yl)prop-2-enoyl]-6,7-dimethoxy-1,2,3,4-tetrahydroisoquinoline hydrochloride] | 37 | 54 | – |
| COc1cc2c(cc1OC)CN(C(=O)/C=C/c1c(-c3ccc(F)cc3)n(C)c3ncccc13)CC2 [Example 140, 2-{(2E)-3-[1-methyl-2-(4-fluorophenyl)-1H-pyrrolo[2,3-b]pyridin-3-yl]prop-2-enoyl}-6,7-dimethoxy-1,2,3,4-tetrahydroisoquinoline hydrochloride] | 140 | 171 | – |
| COC(=O)c1ccc(-c2c(/C=C/C(=O)N3CCC(C(C)=O)(c4ccccc4)CC3)c3cc(C)ccc3n2C)cc1 [Example 141, 4-acetyl-1-{(2E)-3-[1,5-dimethyl-2-(4-carbomethoxyphenyl)-1H-indol-3-yl]prop-2-enoyl}-4-phenylpiperidine] | 111 | 114 | – |
| COC(=O)c1ccc(-c2c(/C=C/C(=O)N3CCc4cc(OC)c(OC)cc4C3)c3cc(C)ccc3n2C)cc1 [Example 142, 2-{(2E)-3-[1,5-dimethyl-2-(4-carbomethoxyphenyl)-1H-indol-3-yl]prop-2-enoyl}-6,7-dimethoxy-1,2,3,4-tetrahydroisoquinoline] | 65 | 130 | – |
| COC(=O)c1ccc(-c2c(/C=C/C(=O)N(C)C3CCN(C)CC3)c3cc(C)ccc3n2C)cc1 [Example 143, (2E)-N-methyl-N-(1-methylpiperidin-4-yl)-3-[1,5-dimethyl-2-(4-carbomethoxyphenyl)-1H-indol-3-yl]acrylamide] | 42 | 104 | – |
| Cc1ncsc1CCNC(=O)c1cnc(N2CCN(C(=O)c3c(-c4ccccc4)n(C)c4ccc(Br)cc34)CC2)cn1 [Example 144, 5-{4-[(5-bromo-1-methyl-2-phenyl-1H-indol-3-yl)carbonyl]piperazin-1-yl}-N-[2-(4-methyl-1,3-thiazol-5-yl)ethyl]pyrazine-2-carboxamide hydrochloride] | 78 | 85 | – |
| Cc1ccc2c(c1)c(C(=O)N1CCN(c3cnc(C(=O)NCCc4ccc(O)cc4)cn3)CC1)c(-c1ccccc1)n2C [Example 145, 5-{4-[(1,5-dimethyl-2-phenyl-1H-indol-3-yl)carbonyl]piperazin-1-yl}-N-[2-(4-hydroxyphenyl)ethyl]pyrazine-2-carboxamide hydrochloride] | 55 | 64 | – |
| CC(=O)C1(c2ccccc2)CCN(C(=O)C=Cc2c(-c3ccc(C(=O)O)cc3)n(C)c3ccc(C)cc23)CC1 [Example 146, 4-{3-[3-(4-acetyl-4-phenylpiperidin-1-yl)-3-oxo-1-propenyl]-1,5-dimethyl-1H-indol-2-yl}benzoic acid] | 43 | 60 | – |
| Cc1ncsc1CCNC(=O)c1cnc(N2CCN(C(=O)c3c(-c4ccccc4)n(C)c4ccc(F)cc34)CC2)cn1 [Example 147, 5-{4-[(5-fluoro-1-methyl-2-phenyl-1H-indol-3-yl)carbonyl]piperazin-1-yl}-N-[2-(4-methyl-1,3-thiazol-5-yl)ethyl]pyrazine-2-carboxamide dihydrochloride] | 29 | 59 | – |
| Cc1cnc2c(c1)c(C(=O)N1CCN(c3cnc(C(=O)NCCc4scnc4C)cn3)CC1)c(-c1ccccc1)n2C [Example 148, 5-{4-[(1,5-dimethyl-2-phenyl-1H-pyrrolo[2,3-b]pyridin-3-yl)carbonyl]piperazin-1-yl}-N-[2-(4-methyl-1,3-thiazol-5-yl)ethyl]pyrazine-2-carboxamide trihydrochloride] | 29 | 53 | – |
